Source: ChEMBL document CHEMBL1649274, “Mutational upregulation of a resistance-nodulation-cell division-type multidrug efflux pump, SdeAB, upon exposure to a biocide, cetylpyridinium chloride, and antibiotic resistance in Serratia marcescens” (Antimicrob Agents Chemother, 2009)
In brackets after ≈: the same amount, converted by molar mass.

What was measured:
Serratia marcescens [1] = assay: Antimicrobial activity against Serratia marcescens ATCC 13880 harboring plasmid STV29 by broth dilution method; format: functional
Serratia marcescens [2] = assay: Antimicrobial activity against cetylpyridinium chloride-sensitive Serratia marcescens 71 by broth dilution method; format: functional
Serratia marcescens [3] = assay: Antimicrobial activity against cetylpyridinium chloride-resistant Serratia marcescens 01 harboring plasmid STV29 by broth dilution method; format: functional
Serratia marcescens [4] = assay: Antimicrobial activity against cetylpyridinium chloride-sensitive Serratia marcescens 79 harboring plasmid STV29 expressing hasF gene by broth dilution method; format: functional
Serratia marcescens [5] = assay: Antimicrobial activity against cetylpyridinium chloride-sensitive Serratia marcescens 71 harboring plasmid STV29 by broth dilution method; format: functional
Serratia marcescens [6] = assay: Antimicrobial activity against cetylpyridinium chloride-resistant Serratia marcescens HMS011 by broth dilution method; format: functional
Serratia marcescens [7] = assay: Antimicrobial activity against cetylpyridinium chloride-resistant Serratia marcescens HMS011 harboring plasmid STV28 expressing sdeB gene by broth dilution method; format: functional
Serratia marcescens [8] = assay: Antimicrobial activity against cetylpyridinium chloride-resistant Serratia marcescens 01 by broth dilution method; format: functional
Serratia marcescens [9] = assay: Antimicrobial activity against cetylpyridinium chloride-sensitive Serratia marcescens 79 by broth dilution method; format: functional
Serratia marcescens [10] = assay: Antimicrobial activity against cetylpyridinium chloride-sensitive Serratia marcescens 79 harboring plasmid STV29 by broth dilution method; format: functional
Serratia marcescens [11] = assay: Antimicrobial activity against cetylpyridinium chloride-resistant Serratia marcescens 011 by broth dilution method; format: functional
Serratia marcescens [12] = assay: Antimicrobial activity against cetylpyridinium chloride-resistant Serratia marcescens 011 harboring plasmid STV28 expressing sdeB gene by broth dilution method; format: functional
Serratia marcescens [13] = assay: Antimicrobial activity against cetylpyridinium chloride-sensitive Serratia marcescens 71 harboring plasmid STV29 expressing hasF gene by broth dilution method; format: functional
Serratia marcescens [14] = assay: microbe, parasite or virus in culture; format: functional; conditions: ATCC 13880
Description: (§1) Antimicrobial activity against Serratia marcescens ATCC 13880 by broth dilution method

Serratia marcescens [15] = assay: Cellular uptake at cetylpyridinium chloride-resistant Serratia marcescens 01 at 50 ug/ml after 60 mins by spectrofluorometry; format: ADME, organism-based; conditions: in vivo, 1 h
Serratia marcescens [16] = assay: Cellular uptake at Serratia marcescens ATCC 13880 at 50 ug/ml after 60 mins by spectrofluorometry; format: ADME, organism-based; conditions: in vivo, 1 h
Serratia marcescens [17] = assay: Cellular uptake at Serratia marcescens ATCC 13880 at 50 ug/ml after 60 mins by spectrofluorometry in presence of […] proteon conductor CCCP; format: ADME, organism-based; conditions: in vivo, 1 h
Serratia marcescens [18] = assay: Cellular uptake at cetylpyridinium chloride-resistant Serratia marcescens 01 at 50 ug/ml after 60 mins by spectrofluorometry in presence of […] proteon conductor CCCP; format: ADME, organism-based; conditions: in vivo, 1 h
Serratia marcescens [19] = conditions: ATCC 13880
Description: as §1

Serratia marcescens [20] = conditions: 01
Serratia marcescens [21] = conditions: 71
Serratia marcescens [22] = conditions: 79

Compound | MIC (Serratia marcescens [1]) [µg/mL] | MIC (Serratia marcescens [2]) [µg/mL] | MIC (Serratia marcescens [3]) [µg/mL] | MIC (Serratia marcescens [4]) [µg/mL] | MIC (Serratia marcescens [5]) [µg/mL] | MIC (Serratia marcescens [6]) [µg/mL] | MIC (Serratia marcescens [7]) [µg/mL] | MIC (Serratia marcescens [8]) [µg/mL] | MIC (Serratia marcescens [9]) [µg/mL] | MIC (Serratia marcescens [10]) [µg/mL] | MIC (Serratia marcescens [11]) [µg/mL] | MIC (Serratia marcescens [12]) [µg/mL] | MIC (Serratia marcescens [13]) [µg/mL] | MIC (Serratia marcescens [14]) [µg/mL] | also measured
CCn1cc(C(=O)O)c(=O)c2cc(F)c(N3CCNC(C)C3)c(F)c21 (stereo unspecified) [LOMEFLOXACIN] | 0.2 (≈ 0.569 µM) | 0.05 (≈ 0.142 µM) | 1.56 (≈ 4.44 µM) | 1.56 (≈ 4.44 µM) | 0.05 (≈ 0.142 µM) | 0.2 (≈ 0.569 µM) | 0.2 (≈ 0.569 µM) | 1.56 (≈ 4.44 µM) | 0.05 (≈ 0.142 µM) | 0.05 (≈ 0.142 µM) | 0.78 (≈ 2.22 µM) | 1.56 (≈ 4.44 µM) | 1.56 (≈ 4.44 µM) | 0.2 (≈ 0.569 µM) | –
CCn1cc(C(=O)O)c(=O)c2ccc(C)nc21 [NALIDIXIC ACID] | – | 12.5 (≈ 53.8 µM) | – | – | – | – | – | 12.5 (≈ 53.8 µM) | 12.5 (≈ 53.8 µM) | – | – | – | – | 12.5 (≈ 53.8 µM) | –
CCn1cc(C(=O)O)c(=O)c2cc(F)c(N3CCNCC3)cc21 [NORFLOXACIN] | 0.2 (≈ 0.626 µM) | 0.05 (≈ 0.157 µM) | 3.13 (≈ 9.8 µM) | 3.13 (≈ 9.8 µM) | 0.05 (≈ 0.157 µM) | 0.2 (≈ 0.626 µM) | 0.2 (≈ 0.626 µM) | 3.13 (≈ 9.8 µM) | 0.05 (≈ 0.157 µM) | 0.05 (≈ 0.157 µM) | 0.78 (≈ 2.44 µM) | 3.13 (≈ 9.8 µM) | 3.13 (≈ 9.8 µM) | 0.2 (≈ 0.626 µM) | Drug uptake (Serratia marcescens [15]): 10 a.u.; Drug uptake (Serratia marcescens [16]): 60 a.u.; Drug uptake (Serratia marcescens [17]): 250 a.u.; Drug uptake (Serratia marcescens [18]): 250 a.u.
CC1COc2c(N3CCN(C)CC3)c(F)cc3c(=O)c(C(=O)O)cn1c23 (stereo unspecified) [OFLOXACIN] | – | 0.05 (≈ 0.138 µM) | – | – | – | – | – | 3.13 (≈ 8.66 µM) | 0.05 (≈ 0.138 µM) | – | – | – | – | 0.1 (≈ 0.277 µM) | –
CCn1cc(C(=O)O)c(=O)c2cnc(N3CCNCC3)nc21 [PIPEMIDIC ACID] | 3.13 (≈ 10.3 µM) | 0.78 (≈ 2.57 µM) | 25 (≈ 82.4 µM) | 12.5 (≈ 41.2 µM) | 0.78 (≈ 2.57 µM) | 3.13 (≈ 10.3 µM) | 3.13 (≈ 10.3 µM) | 25 (≈ 82.4 µM) | 0.78 (≈ 2.57 µM) | 0.78 (≈ 2.57 µM) | 6.25 (≈ 20.6 µM) | 25 (≈ 82.4 µM) | 12.5 (≈ 41.2 µM) | 3.13 (≈ 10.3 µM) | –
CN[C@@H]1[C@H](O[C@H]2[C@H](O[C@H]3[C@H](O)[C@@H](O)[C@H](N=C(N)N)[C@@H](O)[C@@H]3N=C(N)N)O[C@@H](C)[C@]2(O)C=O)O[C@@H](CO)[C@H](O)[C@H]1O [STREPTOMYCIN] | – | 1.56 (≈ 2.68 µM) | – | – | – | – | – | 3.13 (≈ 5.38 µM) | 1.56 (≈ 2.68 µM) | – | – | – | – | 3.13 (≈ 5.38 µM) | –
CN(C)[C@@H]1C(O)=C(C(N)=O)C(=O)[C@@]2(O)C(O)=C3C(=O)c4c(O)cccc4[C@@](C)(O)[C@H]3C[C@@H]12 [TETRACYCLINE] | 50 (≈ 113 µM) | 3.13 (≈ 7.04 µM) | 100 (≈ 225 µM) | 50 (≈ 113 µM) | 3.13 (≈ 7.04 µM) | 50 (≈ 113 µM) | 50 (≈ 113 µM) | 100 (≈ 225 µM) | 3.13 (≈ 7.04 µM) | 3.13 (≈ 7.04 µM) | 100 (≈ 225 µM) | 100 (≈ 225 µM) | 50 (≈ 113 µM) | 50 (≈ 113 µM) | –
GENTAMICIN | – | – | – | – | – | – | – | – | – | – | – | – | – | – | MIC (Serratia marcescens [19]): 1.56 µg/mL; MIC (Serratia marcescens [20]): 1.56 µg/mL; MIC (Serratia marcescens [21]): 1.56 µg/mL; MIC (Serratia marcescens [22]): 1.56 µg/mL
